Patent US6296870A, “Liposomes containing active agents” (Duke University, priority 1998, dated 2001)
Entries after “also recorded” stand apart in the source; their conditions may differ. Values belong to the compound of their own block, whether it stands above or below them.

Assays:
[1] = Mechanical tests of bilayer tensile strength; type: physicochemical
Experimental: (3) Mechanical tests of bilayer tensile strength were carried out on vesicles that contained 0-20 mol % PEG(750)-lipid as a function of MOPC uptake.
As the bilayer takes up more and more of a water-soluble second component (e.g., bile acid or MOPC) it is expected that it will become weaker and softer (Evans et al., In Bile Acids in Gasteroenterology Basic and Clinical Advances, Hoffman et al. (Eds.) Kluwer Academic Publishers, Doderecht, Boston and London, pp. 59-68 (1994); Needham and Zhelev, Ann. Biomed. Egr. 23:287 (1995); Zhelev, Biophys J. 71:257 (1996)). To test this model, the tensile rupture strength of vesicles containing various amounts of MOPC at stationary equilibrium was measured. […] To obtain the wide range of MOPC bilayer concentrations, several different lipid, PEG-lipid and MOPC solution concentrations were used (0.1 μM MOPC; 1.0 μM MOPC; 20% PEG-lipid and 100 μM MOPC; 4% PEG-lipid and 100 μM MOPC; and 1% PEG-lipid and 100 μM MOPC) as indicated on the plot next to each data point in FIG. 6.
PEG-lipids were used in some but not all of these vesicle tests. Whether the incorporation of the PEG-lipids (DMPE-(PEG)750) themselves had any effect on the tensile strength of the bilayer vesicles was also investigated. […]

[2] = MOPC uptake into and desorption from single vesicles, micropipet lysolipid exchange; type: physicochemical
Experimental: I. du Pont de Nemours and Co.) disc and the chloroform evaporated under nitrogen. Final traces of solvent were removed by placing the disc in an evacuated desiccator for 2 hours (Needham and Nunn, Biophys. J. 58:997 (1990)). The so-formed dried lipid layers were prehydrated with water vapor in a nitrogen carrier gas and then fully hydrated overnight in a sucrose solution at 40° C. […] Both the pure SOPC and SOPC/PEG(750)-lipid vesicles were re-suspended in a glucose solution of 205 mOsm for use in micromanipulation experiments as described below. […] The microscope images were recorded using a COHU CCD camera. […] The pipettes were connected to a manometer system that allowed the applied pressures to be changed and measured to an accuracy of 2 microatmospheres. The micropipet suction pressures were measured by differential transducer (Validyne DP15-24). The measured pressures together with real time were multiplexed on the recorded images with a multiplexer (Model 401, Vista Electronics, La Mesa, Calif., USA). The recorded images were used to measure the change of the vesicle projection length inside the holding pipet during uptake and desorption of lysolecithin, and to calculate the membrane tension. […] The vesicle projection length (Lp) inside the holding pipet is measured and the effects of various solutions on the Lp of the test vesicle are compared. […]

[3] = Critical micelle concentration by DPH fluorescence; type: physicochemical
Experimental: The critical micelle concentration (CMC) of the lysolipid was measured independently by DPH fluorescence following the method in Chattopadhyay and London, Analytical Biochem. 139:408 (1984). Briefly, a series of solutions containing increasing concentrations of MOPC in the range 10^-7 M to 10^-4 M were prepared. Diphenyl hexatriene (DPH), a lipid soluble fluorescent dye, was added to these samples and the intensity of fluorescence was measured by spectrofluorimeter at absorption and emission wavelengths of 358 nm and 430 nm, respectively. The CMC was determined by plotting the fluorescence intensity (in arbitrary units) verses concentration of MOPC solutions, made up by diluting a 100 mM stock solution of MOPC (solubilized initially by Tetrahydrofuran) in water (Chattopadhyay and London, Analytical Biochem. 139:408 (1984)).
This second trial used SOPC +20 mol % PEG2000 DSPE (0.2 mg/ml, 2×10^-4 M total lipid) for the lipid vesicles and 1 mM PEG2000 DSPE as micellar suspension. […] It was as though the PEG-lipids at this high concentration had formed a gel inside the vesicles.

[4] = unmodified egg PC membranes, flow rate 300 μm/s; cited from earlier work
[5] = TAXOL solubilized in MOPC micelle suspension; type: physicochemical
Experimental: For concentrations higher than 50 micromolar, samples were diluted in methanol and the original concentrations were back-calculated.
These components were mixed together in glass culture tubes, and the mixture was dried and kept under vacuum for approximately 15 hours to evaporate the solvent. MOPC was chosen because it has an acyl chain composition that matches the di-chain phospholipid, stearoyloleoylphosphatidylcholine, that was used to form the lipid bilayers of encapsulating liposomes, as discussed below. […] Surfactants with high CMCs (e.g., in the mM range) readily dissolve lipid membranes, even when the membranes contain cholesterol.

[6] = Solubility of TAXOL in water and organic solvents; type: physicochemical; details: hexane or tetradecane
[7] = cited from earlier work
[8] = small angle neutron scattering; cited from earlier work

Compound: 1,2-Dimyristoyl-sn-Glycero-3-Phosphoethanolamine -N-PEG-750 [PEG(750)-lipid]
- tensile rupture strength, effect [1]: did not reduce the tensile strength significantly, up to 20 mol % PEG-lipid

- aggregation number in membrane ([2]; above the CMC): about 12
- critical micelle concentration (CMC) [3]: 3 µM
Compound: CCCCCCCC/C=C\CCCCCCCC(=O)OC[C@@H](O)COP(=O)([O-])OCC[N+](C)(C)C [MOPC, mono-oleoyl-phosphatidylcholine]
- overall rate of MOPC desorption ([2]; flow rate 400 μm/s, all PEG(750)-lipid concentrations, 5 vesicles): 0.4 ± 0.2 s⁻¹
- tensile rupture strength, effect [1]: decrease with increasing MOPC concentration
- rate of MOPC desorption [4]: 0.2 s⁻¹

- stability of TAXOL in micelle suspension ([5]; 0.2 mM TAXOL, 5 mM MOPC): at least 24 hours
- TAXOL solubilized in MOPC micelles ([5]; 5 mM MOPC): up to 1 mM
- increase of solubility limit over aqueous solubility ([5]; 20 mM LPC): about 4000 times
- solubility limit in aqueous media in presence of LPC ([5]; 20 mM LPC): 4 mM
- moles TAXOL solubilized per mole MOPC micelle ([5]; MOPC micelle, data not shown): 1 mole TAXOL per mole MOPC
Compound: CC(=O)O[C@H]1C(=O)[C@@]2(C)[C@H]([C@H](OC(=O)c3ccccc3)[C@]3(O)C[C@H](OC(=O)[C@H](O)[C@@H](NC(=O)c4ccccc4)c4ccccc4)C(C)=C1C3(C)C)[C@]1(OC(C)=O)CO[C@@H]1C[C@@H]2O [TAXOL®]
- solubility in alkanes / hexane [6]: not soluble at all in alkanes such as hexane or tetradecane; also recorded: largely insoluble in hexane
- water solubility of TAXOL [7]: about 1 micromolar

Compound: CCCCCC(=O)OCC(COP(=O)([O-])OCC[N+](C)(C)C)OC(=O)CCCCC (stereo not drawn) [dicaproylphosphatidylcholine]
- micelle aggregation number [8]: 19

Compound: CCCCCCC(=O)OCC(COP(=O)([O-])OCC[N+](C)(C)C)OC(=O)CCCCCC (stereo not drawn) [diheptanoylphosphatidylcholine]
- micelle aggregation number [8]: 27
